US11084818B2 (HEPO PHARMACEUTICAL CO., LTD., priority 2016, dated 2021)

Experiments:
hTLR8 = target: T1, hTLR8 (Homo sapiens, UniProt Q9NR97); test: Activation activity test of hTLR8 (HEK-Blue hTLR8 cells, QUANTI-Blue OD650); format: cell-based; conditions: HEK-Blue hTLR8 cells, 24 hours incubation; read-out: TLR8 (EC50)
T1 construct: host or cells: HEK-Blue hTLR8 (HEK293-derived reporter line)
T1 sequence (Q9NR97 27-1041): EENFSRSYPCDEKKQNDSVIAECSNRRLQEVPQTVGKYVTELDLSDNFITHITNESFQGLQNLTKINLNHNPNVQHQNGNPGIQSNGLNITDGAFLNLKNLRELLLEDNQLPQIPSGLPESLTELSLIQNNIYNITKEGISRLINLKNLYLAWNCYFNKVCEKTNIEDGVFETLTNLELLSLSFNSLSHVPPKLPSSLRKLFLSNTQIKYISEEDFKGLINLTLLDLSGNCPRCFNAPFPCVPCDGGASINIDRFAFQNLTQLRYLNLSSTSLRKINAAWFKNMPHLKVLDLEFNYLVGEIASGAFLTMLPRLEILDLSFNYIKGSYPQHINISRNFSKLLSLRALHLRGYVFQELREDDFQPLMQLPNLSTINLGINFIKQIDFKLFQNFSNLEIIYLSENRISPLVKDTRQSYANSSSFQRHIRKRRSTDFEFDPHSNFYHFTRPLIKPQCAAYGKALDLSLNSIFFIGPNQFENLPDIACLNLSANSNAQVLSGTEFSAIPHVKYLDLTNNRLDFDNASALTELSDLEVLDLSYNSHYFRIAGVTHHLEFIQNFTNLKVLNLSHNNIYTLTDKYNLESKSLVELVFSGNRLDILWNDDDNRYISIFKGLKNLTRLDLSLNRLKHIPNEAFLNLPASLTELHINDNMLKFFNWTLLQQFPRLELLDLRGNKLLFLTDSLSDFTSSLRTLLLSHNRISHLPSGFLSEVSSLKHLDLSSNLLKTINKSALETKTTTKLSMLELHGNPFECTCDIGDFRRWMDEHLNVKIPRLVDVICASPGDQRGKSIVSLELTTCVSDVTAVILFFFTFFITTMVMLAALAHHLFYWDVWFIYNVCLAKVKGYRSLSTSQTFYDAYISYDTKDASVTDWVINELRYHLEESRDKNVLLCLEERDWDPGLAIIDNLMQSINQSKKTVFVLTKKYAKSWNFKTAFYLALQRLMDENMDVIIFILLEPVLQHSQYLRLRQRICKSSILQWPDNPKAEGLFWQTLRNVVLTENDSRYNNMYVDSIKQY
Description: (§1) Effect Example 1: Activation Activity Test of hTLR7 and hTLR8
(§2) Cell lines: HEK-Blue™ hTLR7 and HEK-Blue™ hTLR8 (InvivoGen Co.)
(§3) Primary reagents: QUANTI-Blue™ (InvivoGen) and ATPlite 1 Step (PerkinElmer)
(§4) Primary instruments: Automatic Liquid Handling Workstation (Labcyte, Model: Echo), Cell Counter (Countstar, IC1000) and Multifunctional Enzyme Marker (Molecular Device, Flexstation III).
(§5) 2.1 The tested compounds were formulated into a 60 mM concentrated stock solution in DMSO and stored in a nitrogen cabinet.
(§6) 2.3 The T150 cultured cells were taken out from the CO2 incubator and the cell culture supernatant was discarded. The cells were washed with PBS once, followed by addition of about 10 mL of the culture solution. The cells were dissociated by patting the cell culture flask, and gently blown to even by a pipette.
(§7) The cells were counted, and the cell suspension was adjusted to 200,000 cells/mL by the culture solution. Thereafter, 200 μL of diluted cells was added to each well in a 96-well plate containing the compound (40,000 cells/well).
(§8) 2.4 The compounds and cells were incubated in a 5% CO2 incubator at 37° C. for 24 hours.
(§9) 2.5 Compound activity assay: 20 μl of the cell supernatant of each well after induction was added to a cell culture plate containing 180 μL of reagent QUANTI-Blue™, and incubated at 37° C. for 1.5 hours. Thereafter, the optical density absorption (OD650) of each well at 650 nm was measured using a Multifunctional Enzyme Marker: Flexstation III.
(§10) 2.6 Compound Activity: OD650 values were analyzed using GraphPad Prism software and the dose-response curves for the compound were fitted to calculate the EC50 values of the compound.

hTLR7 = target: T2, hTLR7 (Homo sapiens, UniProt Q9NYK1); test: Activation activity test of hTLR7 (HEK-Blue hTLR7 cells, QUANTI-Blue OD650); format: cell-based; conditions: 24 hours incubation, read-out: TLR7 (EC50)
T2 construct: host or cells: HEK-Blue hTLR7 (HEK293-derived reporter line)
T2 sequence (Q9NYK1 27-1049): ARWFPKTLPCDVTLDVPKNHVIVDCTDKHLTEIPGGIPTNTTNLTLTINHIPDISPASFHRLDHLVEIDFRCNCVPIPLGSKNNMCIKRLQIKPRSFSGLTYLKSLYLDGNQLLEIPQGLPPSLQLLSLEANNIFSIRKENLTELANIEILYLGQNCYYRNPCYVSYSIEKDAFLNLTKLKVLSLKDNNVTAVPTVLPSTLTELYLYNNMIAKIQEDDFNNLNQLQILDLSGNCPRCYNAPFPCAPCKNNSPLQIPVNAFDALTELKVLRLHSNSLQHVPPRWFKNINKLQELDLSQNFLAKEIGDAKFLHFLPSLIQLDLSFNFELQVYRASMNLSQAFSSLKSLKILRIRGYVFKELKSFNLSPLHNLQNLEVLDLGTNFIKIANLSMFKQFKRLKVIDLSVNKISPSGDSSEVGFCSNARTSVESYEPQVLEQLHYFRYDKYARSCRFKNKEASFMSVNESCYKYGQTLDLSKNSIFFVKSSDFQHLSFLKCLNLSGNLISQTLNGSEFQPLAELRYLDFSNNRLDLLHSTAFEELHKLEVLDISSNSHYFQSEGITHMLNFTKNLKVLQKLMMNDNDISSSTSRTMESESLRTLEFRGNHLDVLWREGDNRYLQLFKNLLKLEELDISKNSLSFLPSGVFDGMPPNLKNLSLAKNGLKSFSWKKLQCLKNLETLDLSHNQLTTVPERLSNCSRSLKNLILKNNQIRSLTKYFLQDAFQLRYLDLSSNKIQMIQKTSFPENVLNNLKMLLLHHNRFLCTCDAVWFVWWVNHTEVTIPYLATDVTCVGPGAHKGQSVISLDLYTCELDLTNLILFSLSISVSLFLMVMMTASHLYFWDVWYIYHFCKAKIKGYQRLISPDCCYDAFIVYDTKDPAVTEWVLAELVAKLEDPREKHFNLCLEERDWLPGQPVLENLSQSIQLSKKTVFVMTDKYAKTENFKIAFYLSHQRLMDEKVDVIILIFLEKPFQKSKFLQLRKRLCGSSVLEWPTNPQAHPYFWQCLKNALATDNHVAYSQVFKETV
Description: as §1, §2, §3, §4, §5, §6, §7, §8, §9, §10

| EC50 (hTLR8) | EC50 (hTLR7) | Compound |
| --- | --- | --- |
| > 100 µM | 1 to 10 µM | O=c1[nH]c2cnc(OCC3CCCO3)nc2n1Cc1ccc(CN2CCCC2)cc1 (stereo not drawn) [Example 46, 9-(4-(pyrrolidin-1-ylmethyl)benzyl)-2-((tetrahydrofuran-2-yl)methoxy)-7,9-dihydro-8H-purin-8-one] |
| > 100 µM | 0.001 to 1 µM | O=c1[nH]c2cnc(OCCOCC(F)(F)F)nc2n1Cc1ccc(CN2CCCC2)cc1 [Example 48, 9-(4-(pyrrolidin-1-ylmethyl)benzyl)-2-(2-(2,2,2-trifluoroethoxy)ethoxy)-7,9-dihydro-8H-purin-8-one] |
| > 100 µM | 0.001 to 1 µM | O=c1[nH]c2cnc(OCCCOC(F)(F)F)nc2n1Cc1ccc(CN2CCCC2)cc1 [Example 50, 9-(4-(pyrrolidin-1-ylmethyl)benzyl)-2-(3-(trifluoromethoxy)propoxy)-7,9-dihydro-8H-purin-8-one] |
| > 100 µM | 1 to 10 µM | COCCOc1ncc2[nH]c(=O)n(Cc3ccc(CN4CC5CC(C5)C4)cc3)c2n1 [Example 52, 9-(4-((3-azabicyclo[3.1.1]heptan-3-yl)methyl)benzyl)-2-(2-methoxyethoxy)-7,9-dihydro-8H-purin-8-one] |
| > 100 µM | 1 to 10 µM | COCCOc1ncc2[nH]c(=O)n(Cc3ccc(CN4C5CCC4CC5)cc3)c2n1 [Example 53, 9-(4-((7-azabicyclo[2.2.1]heptan-7-yl)methyl)benzyl)-2-(2-methoxyethoxy)-7,9-dihydro-8H-purin-8-one] |
| > 100 µM | 10 to 100 µM | COCCOc1ncc2[nH]c(=O)n(Cc3ccc(CN4CCC(F)(F)C4)cc3)c2n1 [Example 54, 9-(4-((3,3-difluoropyrrolidin-1-yl)methyl)benzyl)-2-(2-methoxyethoxy)-7,9-dihydro-8H-purin-8-one] |
| > 100 µM | 0.001 to 1 µM | O=c1[nH]c2cnc(OCCOC(F)(F)F)nc2n1Cc1ccc(CN2CC=CC2)cc1 [Example 55] |
| > 100 µM | > 100 µM | COCCOc1ncc2c(n1)n(Cc1ccc(CN3CCCC3)cc1)c(=O)n2C [Example 56, 9-(4-(pyrrolidin-1-ylmethyl)benzyl)-7-methyl-2-(2-methoxyethoxy)-7,9-dihydro-8H-purin-8-one] |
| > 100 µM | > 100 µM | CCCn1c(=O)n(Cc2ccc(CN3CCCC3)cc2)c2nc(OCCOC)ncc21 [Example 57, 9-(4-(pyrrolidin-1-ylmethyl)benzyl)-7-propyl-2-(2-methoxyethoxy)-7,9-dihydro-8H-purin-8-one] |
| > 100 µM | > 100 µM | COCCOc1nc(C)c2[nH]c(=O)n(Cc3ccc(CN4CCCC4)cc3)c2n1 [Example 58, 9-(4-(pyrrolidin-1-ylmethyl)benzyl)-6-methyl-2-(2-methoxyethoxy)-7,9-dihydro-8H-purin-8-one] |
| > 100 µM | > 100 µM | COCCOc1ncc2nc(C)n(Cc3ccc(CN4CCCC4)cc3)c2n1 [Example 59, 2-(2-methoxyethoxy)-8-methyl-9-(4-(pyrrolidin-1-ylmethyl)benzyl)-9H-purine] |
| > 100 µM | > 100 µM | COCCOc1ncc2[nH]c(=S)n(Cc3ccc(CN4CCCC4)cc3)c2n1 [Example 60, 2-(2-methoxyethoxy)-9-(4-(pyrrolidin-1-ylmethyl)benzyl)-7,9-dihydro-8H-purin-8-thione] |
| > 100 µM | 10 to 100 µM | COCCOc1ncc2nc(N)n(Cc3ccc(CN4CCCC4)cc3)c2n1 [Example 61, 2-(2-methoxyethoxy)-9-(4-(pyrrolidin-1-ylmethyl)benzyl)-7,9-dihydro-8H-purin-8-amine] |
| > 100 µM | 1 to 10 µM | COCCOc1ncc2[nH]c(=O)n(Cc3ccc(CN4CCCC4)c(F)c3)c2n1 [Example 62, 2-(2-methoxyethoxy)-9-(3-fluoro-4-(pyrrolidin-1-ylmethyl)benzyl)-7,9-dihydro-8H-purin-8-one] |
| > 100 µM | 1 to 10 µM | COCCOc1ncc2[nH]c(=O)n(Cc3ccc(CN4CCCC4)cc3F)c2n1 [Example 63, 2-(2-methoxyethoxy)-9-(2-fluoro-4-(pyrrolidin-1-ylmethyl)benzyl)-7,9-dihydro-8H-purin-8-one] |
| > 100 µM | 1 to 10 µM | CC(C)OCCOc1ncc2[nH]c(=O)n(Cc3ccc(CN4CCCC4)cc3)c2n1 [Example 64, 9-(4-(pyrrolidin-1-ylmethyl)benzyl)-2-(2-isopropoxyethoxy)-7,9-dihydro-8H-purin-8-one] |
| > 100 µM | 1 to 10 µM | O=c1[nH]c2cnc(OCCOCC3CC3)nc2n1Cc1ccc(CN2CCCC2)cc1 [Example 65, 9-(4-(pyrrolidin-1-ylmethyl)benzyl)-2-(2-(cyclopropylmethoxy)ethoxy)-7,9-dihydro-8H-purin-8-one] |
| > 100 µM | > 100 µM | COCCOc1ncc2[nH]c(=O)n(CCc3ccc(CN4CCCC4)cc3)c2n1 [Example 67, 9-(4-(pyrrolidin-1-ylmethyl)phenethyl)-2-(2-methoxyethoxy)-7,9-dihydro-8H-purin-8-one] |

| Compound | EC50 (hTLR8) | EC50 (hTLR7) |
| --- | --- | --- |
| COCCCCOc1ncc2[nH]c(=O)n(Cc3ccc(CN4CCCC4)cc3)c2n1 [Example 47, 9-(4-(pyrrolidin-1-ylmethyl)benzyl)-2-(4-methoxybutoxy)-7,9-dihydro-8H-purin-8-one] | > 100 µM | 1 to 10 µM |
| COC(C)CCOc1ncc2[nH]c(=O)n(Cc3ccc(CN4CCCC4)cc3)c2n1 (stereo not drawn) [Example 49, 9-(4-(pyrrolidin-1-ylmethyl)benzyl)-2-(3-methoxybutoxy)-7,9-dihydro-8H-purin-8-one] | > 100 µM | 0.001 to 1 µM |
| CCCCOc1ncc2[nH]c(=O)n(Cc3ccc(CN4CCCC4)cc3)c2n1 [Example 66, 9-(4-(pyrrolidin-1-ylmethyl)benzyl)-2-butoxy-7,9-dihydro-8H-purin-8-one] | > 100 µM | > 100 µM |
